Measured values published in US8604061B2, “2-aminooxazolines as TAAR1 ligands” (Hoffmann-La Roche Inc., priority 2007, dated 2013).

target: TAAR1 (Mus musculus, UniProt Q923Y8); assay: TAAR1 radioligand binding, membranes of stably transfected HEK293 cells (mouse); conditions: not given
Procedure: For the construction of expression plasmids the coding sequences of human, rat and mouse TAAR 1 were amplified from genomic DNA essentially as described by Lindemann et al.. The Expand High Fidelity PCR System (Roche Diagnostics) was used with 1.5 mM Mg^2+ and purified PCR products were cloned into pCR2.1-TOPO cloning vector (Invitrogen) following the instructions of the manufacturer. PCR products were subcloned into the pIRESneo2 vector (BD Clontech, Palo Alto, Calif.), and expression vectors were sequence verified before introduction in cell lines.
HEK293 cells (ATCC #CRL-1573) were cultured essentially as described Lindemann et al. (2005). For the generation of stably transfected cell lines HEK293 cells were transfected with the pIRESneo2 expression plasmids containing the TAAR coding sequences (described above) with Lipofectamine 2000 (Invitrogen) according to the instructions of the manufacturer, and 24 hrs post transfection the culture medium was supplemented with 1 mg/ml G418 (Sigma, Buchs, Switzerland). After a culture period of about 10 d clones were isolated, expanded and tested for responsiveness to trace amines (all compounds purchased from Sigma) with the cAMP Biotrak Enzyme immunoassay (EIA) System (Amersham) following the non-acetylation EIA procedure provided by the manufacturer.
Cells at confluence were rinsed with ice-cold phosphate buffered saline without Ca^2+ and Mg^2+ containing 10 mM EDTA and pelleted by centrifugation at 1000 rpm for 5 min at 4° C. The pellet was then washed twice with ice-cold phosphate buffered saline and cell pellet was frozen immediately by immersion in liquid nitrogen and stored until use at −80° C. Cell pellet was then suspended in 20 ml HEPES-NaOH (20 mM), pH 7.4 containing 10 mM EDTA, and homogenized with a Polytron (PT 3000, Kinematica) at 10,000 rpm for 10 s. The homogenate was centrifuged at 48,000×g for 30 min at 4° C. and the pellet resuspended in 20 ml HEPES-NaOH (20 mM), pH 7.4 containing 0.1 mM EDTA (buffer A), and homogenized with a Polytron at 10,000 rpm for 10 s. The homogenate was then centrifuged at 48,000×g for 30 min at 4° C. and the pellet resuspended in 20 ml buffer A, and homogenized with a Polytron at 10,000 rpm for 10 s. Protein concentration was determined by the method of Pierce (Rockford, Ill.). The homogenate was then centrifuged at 48,000×g for 10 min at 4° C., resuspended in HEPES-NaOH (20 mM), pH 7.0 including MgCl2 (10 mM) and […] homogenized with a Polytron at 10,000 rpm for 10 s.
Binding assay was performed at 4° C. in a final volume of 1 ml, and with an incubation time of 30 min. […] Non-specific binding was defined as the amount of [^3H]-rac-2-(1,2,3,4-tetrahydro-1-naphthyl)-2-imidazoline bound in the presence of the appropriate unlabelled ligand (10 μM). Competing ligands were tested in a wide range of concentrations (10 pM-30 μM). […] Each experiment was performed in duplicate. All incubations were terminated by rapid filtration through UniFilter-96 plates (Packard Instrument Company) and glass filter GF/C, pre-soaked for at least 2 h in polyethylenimine 0.3%, and using a Filtermate 96 Cell Harvester (Packard Instrument Company). The tubes and filters were then washed 3 times with 1 ml aliquots of cold buffer B. Filters were not dried and soaked in Ultima gold (45 μl/well, Packard Instrument Company) and bound radioactivity was counted by a TopCount Microplate Scintillation Counter (Packard Instrument Company).

Question: With `NC1=NC(C2CCc3ccccc3C2)CO1` (racemic) [Example 84, (RS)-4-(1,2,3,4-Tetrahydro-naphthalen-2-yl)-4,5-dihydro-oxazol-2-ylamine] as the compound, how does the Ki read?
Answer: 0.0017 µM

Question: For `NC1=NC(c2ccc(Cl)cc2Cl)CO1` (racemic) [Example 235, (RS)-4-(2,4-Dichloro-phenyl)-4,5-dihydro-oxazol-2-ylamine], which Ki is on record?
Answer: 0.001 µM

Question: Which Ki does the source give for `COc1ccc(C2COC(N)=N2)cc1Cl` (racemic) [Example 36, (RS)-4-(3-Chloro-4-methoxyphenyl)-4,5-dihydro-oxazol-2-ylamine] here?
Answer: 0.0034 µM

Question: With `COc1ccc(C2COC(N)=N2)cc1C` (racemic) [Example 35, (RS)-4-(4-Methoxy-3-methyl-phenyl)-4,5-dihydro-oxazol-2-ylamine] as the compound, how does the Ki read?
Answer: 0.0033 µM

Question: Which Ki does the source give for `CC1(c2cc(F)c(Cl)cc2F)COC(N)=N1` (racemic) [Example 271, (RS)-4-Methyl-4-(4-chloro-2,5-difluoro-phenyl)-4,5-dihydro-oxazol-2-ylamine] here?
Answer: 0.0013 µM

Question: For `Cc1ccc(C2COC(N)=N2)cc1Cl` (racemic) [Example 351, (RS)-4-(3-Chloro-4-methyl-phenyl)-4,5-dihydro-oxazol-2-ylamine], which Ki is on record?
Answer: 0.0024 µM

Question: `NC1=NC(c2ccccc2Br)CO1` (racemic) [Example 237, (RS)-4-(2-Bromo-phenyl)-4,5-dihydro-oxazol-2-ylamine] was tested. Which Ki did it give?
Answer: 0.0025 µM

same assay, conditions: mouse/rat; cell not marked 'rat'; radioligand [3H]-rac-2-(1,2,3,4-tetrahydro-1-naphthyl)-2-imidazoline, 4° C.; read-out: Ki (μM) mouse/rat

Question: How did the Ki turn out when `NC1=N[C@@H](COCc2ccccc2)CO1` [Example 350, (S)-4-Benzyloxymethyl-4,5-dihydro-oxazol-2-ylamine] was run?
Answer: 0.0064 µM

Question: For `NC1=N[C@@H](CCc2ccc(OC(F)(F)F)c(F)c2)CO1` [Example 145, (S)-4-[2-(3-Fluoro-4-trifluoromethoxy-phenyl)-ethyl]-4,5-dihydro-oxazol-2-ylamine], which Ki is on record?
Answer: 0.0026 µM

Question: For `NC1=N[C@@H](c2cccc(C(F)(F)F)c2)CO1` [Example 153, (S)-4-(3-Trifluoromethyl-phenyl)-4,5-dihydro-oxazol-2-ylamine], which Ki is on record?
Answer: 0.0083 µM

Question: With `CCC(C[C@H]1COC(N)=N1)c1cc(Cl)ccc1F` (stereo partly drawn) [Example 358, (S)-4-[2-(5-Chloro-2-fluoro-phenyl)-butyl]-4,5-dihydro-oxazol-2-ylamine] as the compound, how does the Ki read?
Answer: 0.0084 µM

Question: Which Ki does the source give for `Cc1cc(F)ccc1[C@H]1COC(N)=N1` [Example 348, (+)-(S)-4-(4-Fluoro-2-methyl-phenyl)-4,5-dihydro-oxazol-2-ylamine] here?
Answer: 0.0036 µM

Question: For `C[C@]1(c2ccc(F)c(Cl)c2)COC(N)=N1` [Example 277, (S)-4-(3-chloro-4-fluoro-phenyl)-4-methyl-4,5-dihydro-oxazol-2-ylamine], which Ki is on record?
Answer: 0.0016 µM

Question: How did the Ki turn out when `NC1=N[C@@H](c2cc(F)ccc2F)CO1` [Example 101, (S)-4-(2,5-Difluoro-phenyl)-4,5-dihydro-oxazol-2-ylamine] was run?
Answer: 0.0034 µM

Question: How did the Ki turn out when `CCC(C[C@H]1COC(N)=N1)c1ccc(F)cc1` (stereo partly drawn) [Example 210, (S)-4-[2-(4-Fluoro-phenyl)-butyl]-4,5-dihydro-oxazol-2-ylamine] was run?
Answer: 0.0014 µM

Question: How did the Ki turn out when `NC1=N[C@@H](COc2ccc(F)cc2)CO1` [Example 213, (S)-4-(4-Fluoro-phenoxymethyl)-4,5-dihydro-oxazol-2-ylamine] was run?
Answer: 0.003 µM

Question: `NC1=N[C@@H](CCc2ccc(F)c(F)c2)CO1` [Example 89, (S)-4-[2-(3,4-Difluoro-phenyl)-ethyl]-4,5-dihydro-oxazol-2-ylamine] was tested. Which Ki did it give?
Answer: 0.0013 µM

Question: How did the Ki turn out when `NC1=N[C@@H](c2cc(Cl)c(Cl)cc2C(F)(F)F)CO1` [Example 242, (+)-(S)-4-(4,5-Dichloro-2-trifluoromethyl-phenyl)-4,5-dihydro-oxazol-2-ylamine] was run?
Answer: 0.0072 µM

Question: For `NC1=N[C@@H](Cc2ccc3ccccc3c2)CO1` [Example 49, (S)-4-Naphthalen-2-ylmethyl-4,5-dihydro-oxazol-2-ylamine], which Ki is on record?
Answer: 0.0054 µM

Question: For `CCC(C[C@H]1COC(N)=N1)c1ccccc1` (stereo partly drawn) [Example 163, (S)-4-(2-Phenyl-butyl)-4,5-dihydro-oxazol-2-ylamine], which Ki is on record?
Answer: 0.0037 µM

Question: `NC1=N[C@@H](CCc2cc(Cl)ccc2Cl)CO1` [Example 333, (S)-4-[2-(2,5-Dichloro-phenyl)-ethyl]-4,5-dihydro-oxazol-2-ylamine] was tested. Which Ki did it give?
Answer: 0.0021 µM

Question: How did the Ki turn out when `CCC(C[C@H]1COC(N)=N1)c1cccc(F)c1` (stereo partly drawn) [Example 340, (S)-4-[2-(3-Fluoro-phenyl)-butyl]-4,5-dihydro-oxazol-2-ylamine] was run?
Answer: 0.002 µM

Question: Which Ki does the source give for `NC1=N[C@@H](CCc2ccccc2F)CO1` [Example 111, (S)-4-[2-(2-Fluoro-phenyl)-ethyl]-4,5-dihydro-oxazol-2-ylamine] here?
Answer: 0.0011 µM

Question: `NC1=N[C@@H](c2ccc(Br)cc2F)CO1` [Example 367, (+)-(S)-4-(4-Bromo-2-fluoro-phenyl)-4,5-dihydro-oxazol-2-ylamine] was tested. Which Ki did it give?
Answer: 0.001 µM

Question: `CC(C[C@H]1COC(N)=N1)c1ccc(C(F)(F)F)cc1` (stereo partly drawn) [Example 165, (S)-4-[2-(4-Trifluoromethyl-phenyl)-propyl]-4,5-dihydro-oxazol-2-ylamine] was tested. Which Ki did it give?
Answer: 0.0012 µM

Question: `NC1=N[C@@H](CCc2cc(F)cc(F)c2)CO1` [Example 113, (S)-4-[2-(3,5-Difluoro-phenyl)-ethyl]-4,5-dihydro-oxazol-2-ylamine] was tested. Which Ki did it give?
Answer: 0.0016 µM

Question: `NC1=N[C@@H](CCc2cccc(C(F)(F)F)n2)CO1` [Example 212, (S)-4-[2-(6-Trifluoromethyl-pyridin-2-yl)-ethyl]-4,5-dihydro-oxazol-2-ylamine] was tested. Which Ki did it give?
Answer: 0.0068 µM

Question: How did the Ki turn out when `CC(Cc1ccccc1)[C@H]1COC(N)=N1` (stereo partly drawn) [Example 154, (S)-4-(1-Methyl-2-phenyl-ethyl)-4,5-dihydro-oxazol-2-ylamine] was run?
Answer: 0.0034 µM

Question: Which Ki does the source give for `CCC(C[C@H]1COC(N)=N1)c1ccc(Cl)c(Cl)c1` (stereo partly drawn) [Example 222, (S)-4-[2-(3,4-Dichloro-phenyl)-butyl]-4,5-dihydro-oxazol-2-ylamine] here?
Answer: 0.0048 µM

Question: How did the Ki turn out when `NC1=N[C@@H](CCc2cc(F)cc(C(F)(F)F)c2)CO1` [Example 159, (S)-4-[2-(3-Fluoro-5-trifluoromethyl-phenyl)-ethyl]-4,5-dihydro-oxazol-2-ylamine] was run?
Answer: 0.001 µM

Question: For `Cc1ccc([C@@]2(C)COC(N)=N2)cc1` [Example 161, (S)-4-Methyl-4-p-tolyl-4,5-dihydro-oxazol-2-ylamine], which Ki is on record?
Answer: 0.0062 µM

Question: `NC1=N[C@@H](CCc2cc(C(F)(F)F)ccc2C(F)(F)F)CO1` [Example 160, (S)-4-[2-(2,5-Bis-trifluoromethyl-phenyl)-ethyl]-4,5-dihydro-oxazol-2-ylamine] was tested. Which Ki did it give?
Answer: 0.0028 µM

Question: For `C[C@]1(c2cc(F)c(Cl)cc2F)COC(N)=N1` [Example 289, (S)-4-(4-Chloro-2,5-difluoro-phenyl)-4-methyl-4,5-dihydro-oxazol-2-ylamine], which Ki is on record?
Answer: 0.0017 µM

Question: With `NC1=N[C@@H](c2cc(F)cc(Cl)c2)CO1` [Example 178, (S)-4-(3-Chloro-5-fluoro-phenyl)-4,5-dihydro-oxazol-2-ylamine] as the compound, how does the Ki read?
Answer: 0.0004 µM

Question: `CC[C@H](C[C@H]1COC(N)=N1)c1ccccc1` [Example 293, (S)-4-((R)-2-Phenyl-butyl)-4,5-dihydro-oxazol-2-ylamine] was tested. Which Ki did it give?
Answer: 0.0062 µM

Question: `NC1=N[C@@H](c2ccc(F)c(Br)c2F)CO1` [Example 29 (S), (S)-4-(3-Bromo-2,4-difluoro-phenyl)-4,5-dihydro-oxazol-2-ylamine] was tested. Which Ki did it give?
Answer: 0.0054 µM

Question: How did the Ki turn out when `NC1=N[C@@H](CCc2cccc(C(F)(F)F)c2F)CO1` [Example 142, (S)-4-[2-(2-Fluoro-3-trifluoromethyl-phenyl)-ethyl]-4,5-dihydro-oxazol-2-ylamine] was run?
Answer: 0.0018 µM

Question: With `CC[C@@H](C[C@H]1COC(N)=N1)c1ccccc1` [Example 292, (S)-4-((S)-2-Phenyl-butyl)-4,5-dihydro-oxazol-2-ylamine] as the compound, how does the Ki read?
Answer: 0.0035 µM

Question: For `CCc1cc(Cl)ccc1[C@H]1COC(N)=N1` [Example 364, (+)-(S)-4-(4-Chloro-2-ethyl-phenyl)-4,5-dihydro-oxazol-2-ylamine], which Ki is on record?
Answer: 0.002 µM

Question: For `Cc1cc([C@@]2(C)COC(N)=N2)c(F)cc1Cl` [Example 308, (S)-4-(4-Chloro-2-fluoro-5-methyl-phenyl)-4-methyl-4,5-dihydro-oxazol-2-ylamine], which Ki is on record?
Answer: 0.0009 µM
